The results in this text go back to patent publication US10689622B2, “Culture medium for proliferating stem cell, which contains sulfated compound” (AJINOMOTO CO., INC., priority 2012, dated 2020).

Data set [1] has as its system Human bone marrow-derived mesenchymal stem cells. Kind of data set: Mesenchymal stem cell proliferation system (cell number by DNA quantification). The conditions noted are these: for effectiveness cells: growth of mesenchymal stem cell, control ratio.
Procedure: Human bone marrow-derived mesenchymal stem cells (Lonza, Human Mesenchymal Stem Cell) cultured in mesenchymal stem cell-dedicated medium (Lonza, MSCGM) or Dulbecco's Modified Eagle Medium (Invitrogen, GIBCO D-MEM) containing inactivated fetal bovine serum (Invitrogen, GIBCO FBS) and penicillin-streptomycin (Sigma-Aldrich Co. LLC.) were cultured in exchanged Lonza serum-free medium. The mesenchymal stem cells thus-acclimated to serum-free culture were suspended in Lonza serum-free medium, and seeded on a 24 well culture plate (Nippon Becton Dickinson Company, Ltd., Falcon culture plate) at 20,000 cells/well or a 6 well culture plate (Nippon Becton Dickinson Company, Ltd., Falcon culture plate) at 50,000 cells/well. Then, a test compound solution after filter sterilization and adjustment to a given concentration was added, and the cells were cultured in an incubator (Thermo Scientific, Forma incubator) under the 5% CO2/37° C. conditions for 7 to 8 days. When the medium exchange was necessary, the medium was exchanged 2 to 3 days after the seeding. In this case, the test compound solution was also added again in the same manner as in seeding. In this case, various compound solutions were added again in the same manner as in seeding. After culturing for 7 to 8 days, the medium was removed and DNA quantification was performed. As a control, the cells were cultured in the same manner in a medium without a test compound and added with phosphate buffered saline.
The medium in the 24 well culture plate was removed, and the cells were washed with phosphate buffered saline. The sodium lauryl sulfate solution (500 μl/well) was added, and the mixture was left standing at 37° C. for 4 hours. The sodium lauryl sulfate solution (1.0 ml) was also added to a cell pellet with a known cell number, and the mixture was left standing at 37° C. for 4 hours. As for the cells in the 24 well culture plate, a part (50 μl) of the lysate was transferred to a 96 well black microplate. The solution used for treating the cell pellets was successively diluted with sodium lauryl sulfate solution and used as solutions for drawing an analytical curve. Also, a part (50 μl) of the solutions for drawing an analytical curve was each transferred to the 96 well black microplate. […] The fluorescence was measured by a microplate reader (excitation wavelength: 355 nm, measurement wavelength: 460 nm) within 5 minutes from the addition. The cell number of the 24 well cell culture plate was calculated from the analytical curve drawn (conversion formula). The evaluation criteria were as follows.
In data set [2] the target is T1, bFGF (Homo sapiens, UniProt P09038).
T1 construct: purchased Lonza (via TAKARA BIO INC.) Ser. No. 00/190,632
T1 sequence (P09038 143-288): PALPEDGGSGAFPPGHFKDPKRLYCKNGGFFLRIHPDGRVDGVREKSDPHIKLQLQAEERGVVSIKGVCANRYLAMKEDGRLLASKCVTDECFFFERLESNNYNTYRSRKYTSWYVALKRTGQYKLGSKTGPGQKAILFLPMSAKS
Kind of data set: Evaluation of bFGF stabilization in Essential 8 medium (ELISA). The class given is biochemical. The conditions noted are these: 37° C. for 7 days. A digest of the protocol:
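Test compound in PBS diluted 10-fold into serum-free medium (Essential 8 or ReproFF2), held sealed at 37° C for 7 days; remaining bFGF quantified by ELISA against a standard curve. Controls: PBS without compound diluted into each medium, held 7 days at 37° C or 4° C.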
(In an ELISA, binding on a coated surface is turned into a signal by an enzyme label.)

Data set [3] in a line: Measurement of content level of sulfur in test compound (ICP). The format is physicochemical. The conditions noted are these: ICPS-8100, evaluation samples containing 0.01 wt % test compound. A digest of the protocol:
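Sulfur content was measured by ICP emission spectrometry on samples containing 0.01 wt % test compound. Values came from a calibration curve of sulfur standards at 0, 1, 10, 30 and 50 ppm.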

Data set [4] deals with T1, bFGF. Kind of data set: Evaluation of bFGF stabilization in Lonza serum-free medium (ELISA). The format is biochemical. The settings on record: for effectiveness ELISA: effectiveness in ELISA evaluation of mesenchymal stem cells (medium), 4° C. control ratio. The gist of the method: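 Compound in PBS diluted 10-fold into serum-free medium and held sealed at 37 °C for 7 days (some sets 3 days). Remaining bFGF quantified by human bFGF sandwich ELISA against a standard curve. Controls were compound-free PBS-medium kept at 37 °C or 4 °C for the same period.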

Data set [5] relates to iPS cell 201B7 strain. Kind of data set: iPS cell proliferation system (cell number). The conditions noted are these: matrigel, Essential-8 medium. The format is cell-based, human. The procedure:
The cell proliferation effect of various test compounds was evaluated using artificial pluripotent stem cell (iPS cell). 201B7 strain purchased from iPS Academia Japan, Inc. was grown in a culture container coated with a basal lamina matrix (matrigel manufactured by Nippon Becton Dickinson Company, Ltd., or a fragment containing an active domain of laminin 511 purchased from OSAKA UNIVERSITY) (Becton, Dickinson and Company, Falcon culture petri dish or Falcon culture plate), contained in a feeder-free medium for human ES/iPS cell (ReproCELL Inc, ReproFF2).
In this medium were suspended iPS cells in colony state, and a 2.5- to 3.5-fold diluted amount of the original culture was plated on a 6-well culture plate coated with a basal lamina matrix (Nippon Becton Dickinson Company, Ltd., Falcon culture plate). […] After culturing for 6 to 12 days, the medium was removed, the cells were detached from the culture plate by a trypsin-EDTA (Sigma-Aldrich Ltd.) or TrypLE Select (Invitrogen) treatment and the cell number was measured. The cell number was measured by the method described in “Kaitei Saibou baiyou Nyuumon Note, page 77-83, 2010, YODOSHA CO., LTD.” which is incorporated herein by reference in its entirety.
When the cells were seeded in a dissociation state of the cells (single cell state), a test compound solution after filter sterilization was added to a medium containing Y-27632 (Nacalai Tesque) to a given concentration, and dispensed to a 6 well culture plate. Thereto were plated iPS cells suspended in a medium containing Y-27632 at 100,000 cells/well, and cultured for 6 to 8 days. On the next day of seeding, the medium was exchanged to a medium (without Y-27632) added with the test compound alone. When medium exchange was necessary, the medium was exchanged every 2 or 3 days. […] After culturing for 6 to 8 days, the cell number was measured by a method similar to that mentioned above.
When the evaluation was performed in Essential 8 medium (Invitrogen), which is a different feeder-free medium for iPS cell, iPS cells cultured in a medium obtained by adding human serum albumin (Sigma-Aldrich Co. LLC) to Essential 8 medium were used.

The mark [6] stands for this setting: Lonza serum-free medium, 37° C. for 7 days, test compound 25 ng/ml.
The mark [7] stands for this setting: Lonza serum-free medium, 37° C. for 7 days, test compound 250 ng/ml.
Where [8] appears, read: Lonza serum-free medium, 37° C. for 7 days, test compound 25 μg/ml.
Setting [9] is: Lonza serum-free medium, 37° C. for 7 days, test compound 250 μg/ml.

With maltitol SO3Na, in data set [1], the effectiveness cells entry is “⊚ (⊚ not less than 120%)”. In data set [2], the “concentration showing a suppressive effect on a decrease in the bFGF concentration of the medium” value is “not less than 2.5 μg/ml”. Besides, the “bFGF concentration relative to that of 4° C. control (ELISA)” value (from here on “bFGF concentration relative to that”) in data set [2] (test compound 250 pg/ml) is “x (bFGF concentration was less than 10% relative to that of 4 °C control)”; in data set [2] (test compound 25 ng/ml), “x (bFGF concentration was less than 10% relative to that of 4 °C control)”; in data set [2] (test compound 250 ng/ml), “x (bFGF concentration was less than 10% relative to that of 4 °C control)”; in data set [2] (test compound 25 μg/ml), “+ (bFGF concentration was not less than 30% and less than 50% relative to that of 4 °C control)”; in data set [2] (test compound 250 μg/ml), “+ (bFGF concentration was not less than 30% and less than 50% relative to that of 4 °C control)”; in data set [4] (setting [6]), “x (bFGF concentration was less than 10% relative to that of 4 °C control)”. Moreover, the “bFGF concentration relative to that” value in data set [4] (setting [7]) was “++ (bFGF concentration was not less than 50% and less than 70% relative to that of 4 °C control)”; in data set [4] (setting [8]) it was “+++ (bFGF concentration was not less than 70% relative to that of 4 °C control)”; in data set [4] (setting [9]), “++ (bFGF concentration was not less than 50% and less than 70% relative to that of 4 °C control)”. Besides, in data set [3], the “sulfur content Found (inorganic analysis)” value (from here on “sulfur content Found”) is reported as 17 wt %. For the same substance, in data set [4], the “effectiveness ELISA” value is reported as “+++ (+++ 70%<)”.
As for maltoheptaose SO3Na, in data set [1], the effectiveness cells result is “⊚ (⊚ not less than 120%)”. Further, in data set [1] (mesenchymal stem cells, Lonza serum-free medium), the “concentration showing promoted cell proliferation as compared to the control” value is 250 ng/mL. Moreover, the “concentration showing a suppressive effect on a decrease in the bFGF concentration of the medium” value in data set [2] was “not less than 250 ng/ml”. In addition, the “bFGF concentration relative to that” value in data set [2] (test compound 250 pg/ml) was “x (bFGF concentration was less than 10% relative to that of 4 °C control)”; in data set [2] (test compound 25 ng/ml) it was “x (bFGF concentration was less than 10% relative to that of 4 °C control)”; in data set [2] (test compound 250 ng/ml), “+ (bFGF concentration was not less than 30% and less than 50% relative to that of 4 °C control)”; in data set [2] (test compound 25 μg/ml), “+++ (bFGF concentration was not less than 70% relative to that of 4 °C control)”; in data set [2] (test compound 250 μg/ml) it was “+++ (bFGF concentration was not less than 70% relative to that of 4 °C control)”; in data set [4] (Lonza serum-free medium, 37° C. for 3 days, test compound 25 ng/ml), “− (bFGF concentration was not less than 10% and less than 30% relative to that of 4 °C control)”. Further, the “bFGF concentration relative to that” value in data set [4] (Lonza serum-free medium, 37° C. for 3 days, test compound 250 ng/ml) is “++ (bFGF concentration was not less than 50% and less than 70% relative to that of 4 °C control)”; in data set [4] (Lonza serum-free medium, 37° C. for 3 days, test compound 25 μg/ml), “++ (bFGF concentration was not less than 50% and less than 70% relative to that of 4 °C control)”; in data set [4] (Lonza serum-free medium, 37° C. for 3 days, test compound 250 μg/ml) it was “++ (bFGF concentration was not less than 50% and less than 70% relative to that of 4 °C control)”; in data set [4] (setting [6]), “+ (bFGF concentration was not less than 30% and less than 50% relative to that of 4 °C control)”; in data set [4] (setting [7]), “x (bFGF concentration was less than 10% relative to that of 4 °C control)”; in data set [4] (setting [8]) it was “+++ (bFGF concentration was not less than 70% relative to that of 4 °C control)”. In data set [4] (setting [9]), the “bFGF concentration relative to that” value was “++ (bFGF concentration was not less than 50% and less than 70% relative to that of 4 °C control)”. In data set [3], the “sulfur content Found” value is 16 wt %. In addition, the results for the “number of cells relative to control” value in data set [5] (test compound 25 ng/ml) and in data set [5] (test compound 250 ng/ml) were “⊚ (not less than 120%: ⊚)” and “— (100%-50%: —)”, respectively. The “concentration showing a suppressive effect on a decrease in the bFGF concentration in the medium” value in data set [4] (Lonza serum-free medium, 37° C. for 3 days) is “not less than 25 ng/ml”. For the same substance, the “effectiveness ELISA” value in data set [4] is “+++ (+++ 70%<)”.
Consider maltotriose SO3Na, for which the effectiveness cells entry in data set [1] is on record as “⊚ (⊚ not less than 120%)”. For the same substance, in data set [2], the “concentration showing a suppressive effect on a decrease in the bFGF concentration of the medium” value was “not less than 250 ng/ml”. The “bFGF concentration relative to that” value in data set [2] (test compound 250 pg/ml) was “x (bFGF concentration was less than 10% relative to that of 4 °C control)”; in data set [2] (test compound 25 ng/ml), “x (bFGF concentration was less than 10% relative to that of 4 °C control)”; in data set [2] (test compound 250 ng/ml), “− (bFGF concentration was not less than 10% and less than 30% relative to that of 4 °C control)”; in data set [2] (test compound 25 μg/ml), “+++ (bFGF concentration was not less than 70% relative to that of 4 °C control)”; in data set [2] (test compound 250 μg/ml), “+++ (bFGF concentration was not less than 70% relative to that of 4 °C control)”; in data set [4] (setting [6]), “x (bFGF concentration was less than 10% relative to that of 4 °C control)”. In addition, the “bFGF concentration relative to that” value is “x (bFGF concentration was less than 10% relative to that of 4 °C control)” in data set [4] (setting [7]); “+ (bFGF concentration was not less than 30% and less than 50% relative to that of 4 °C control)” in data set [4] (setting [8]); “+++ (bFGF concentration was not less than 70% relative to that of 4 °C control)” in data set [4] (setting [9]). Besides, in data set [3], the “sulfur content Found” value is given as 13 wt %. Besides, the “number of cells relative to control” value in data set [5] (test compound 25 ng/ml) and in data set [5] (test compound 250 ng/ml) was “◯ (not less than 100%: ◯)” in each case. The “effectiveness ELISA” value in data set [4] is on record as “+++ (+++ 70%<)”.
Turning to mannitol SO3Na, the effectiveness cells result in data set [1] was “◯ (◯ not leas than 100%)”. In data set [2], the “concentration showing a suppressive effect on a decrease in the bFGF concentration of the medium” value is reported as “not less than 2.5 μg/ml”. Further, the “bFGF concentration relative to that” value in data set [2] (test compound 250 pg/ml) was “x (bFGF concentration was less than 10% relative to that of 4 °C control)”; in data set [2] (test compound 25 ng/ml), “x (bFGF concentration was less than 10% relative to that of 4 °C control)”; in data set [2] (test compound 250 ng/ml), “x (bFGF concentration was less than 10% relative to that of 4 °C control)”; in data set [2] (test compound 25 μg/ml) it was “+++ (bFGF concentration was not less than 70% relative to that of 4 °C control)”; in data set [2] (test compound 250 μg/ml) it was “+++ (bFGF concentration was not less than 70% relative to that of 4 °C control)”; in data set [4] (setting [6]), “+ (bFGF concentration was not less than 30% and less than 50% relative to that of 4 °C control)”. The “bFGF concentration relative to that” value in data set [4] (setting [7]) is “− (bFGF concentration was not less than 10% and less than 30% relative to that of 4 °C control)”; in data set [4] (setting [8]) it was “+ (bFGF concentration was not less than 30% and less than 50% relative to that of 4 °C control)”; in data set [4] (setting [9]), “++ (bFGF concentration was not less than 50% and less than 70% relative to that of 4 °C control)”. In addition, the “sulfur content Found” value in data set [3] stood at 17 wt %. Moreover, the “effectiveness ELISA” value in data set [4] is on record as “++ (++ 50%<)”.
